Patent publication US5462926A (Biomeasure, Inc., priority 1993, dated 1995)
Where no end group is shown, it is not given here.

Experiments:
[1] = molecular target: T1, mu opioid receptors (Rattus norvegicus, UniProt P33535); test: Mu opioid membrane assay, [3H]DAGO, rat forebrain membranes; format: binding; conditions: Cheng method; unit inferred; read-out: affinity, [3H]DAGO, Rat Forebrain membranes (mu opioid receptors)
T1 construct: rat forebrain (TRH, mu and delta opioid membrane assays); from tissue; host or cells: rat forebrain membranes

[2] = molecular target: T2, NMB receptor (Rattus norvegicus, UniProt P24053); test: NMB membrane receptor assay, 125I-NMB, rat olfactory bulb membranes; format: binding; design: Membranes were prepared from rat olfactory bulb (NMB membrane receptor assay); from tissue; host or cells: rat olfactory bulb membranes; conditions: Cheng method; unit inferred; read-out: affinity, 125I-NMB, Rat Olfactory bulb membranes (neuromedin B receptors)
T2 sequence (P24053 1-390): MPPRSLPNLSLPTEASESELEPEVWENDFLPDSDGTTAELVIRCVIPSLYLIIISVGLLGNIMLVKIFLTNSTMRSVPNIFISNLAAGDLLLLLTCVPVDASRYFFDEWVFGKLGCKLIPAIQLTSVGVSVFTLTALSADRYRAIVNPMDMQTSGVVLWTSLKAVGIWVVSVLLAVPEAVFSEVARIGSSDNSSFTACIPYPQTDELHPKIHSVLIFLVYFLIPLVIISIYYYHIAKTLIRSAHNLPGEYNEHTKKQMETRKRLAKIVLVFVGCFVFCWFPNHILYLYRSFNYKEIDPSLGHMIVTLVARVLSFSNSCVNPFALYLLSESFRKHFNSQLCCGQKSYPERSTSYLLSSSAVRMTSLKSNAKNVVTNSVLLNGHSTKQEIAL

[3] = molecular target: GRP receptor (Rattus norvegicus, UniProt P52500); test: GRP membrane receptor assay, 125I-[Tyr4]Bn, AR 42J cell membranes; format: binding; design: endogenous in cells; host or cells: rat AR 42J pancreatic acinar tumor cell membranes; conditions: read-out: affinity, 125I-[Tyr4]Bn, AR 42J Cell Membranes (GRP receptors); Cheng method; unit inferred
[4] = molecular target: T3, somatostatin receptors (Rattus norvegicus, UniProt P30680); test: Somatostatin membrane receptor assay, 125I-[Tyr11]SS-14, AR 42J cell membranes; format: binding; conditions: Cheng method; table prints no unit (b360 gives nM for a Table 4 value); read-out: affinity, 125I-[Tyr11]SS-14, AR 42J Cell Membranes (somatostatin receptors)
T3 construct: endogenous in cells; host or cells: rat AR 42J pancreatic acinar tumor cell membranes

[5] = molecular target: T4, rat NMB receptor (Rattus norvegicus, UniProt P24053); test: Binding of 125I-[D-Tyr0]NMB to NMB-R transfected BALB 3T3 cells; conditions: NMB-R transfected cells; read-out: Kd of NMB for NMB receptors without cyclo SS-octa
T4 construct: a full length NMB-preferring bombesin receptor clone generated from rat esophagus; expressed in transfected cells
T4 sequence (P24053 1-390): T2 sequence (P24053 1-390)
Protocol: Cells were passaged every 3-4 days at confluence, using 0.1% trypsin in 1 mM EDTA. Rat glioblastoma C-6 tumor cells were maintained similarly and were passaged weekly at confluence. Both cell lines were cultured at 37° C. in a 5% CO2 atmosphere. Rat AR 42J pancreatic acinar cells were cultured in Dulbecco's modified Eagle's medium (DMEM) without antibiotics and supplemented with 10% (vol/vol) fetal calf serum. The incubation atmosphere consisted of 10% CO2 -90% humidified air at 37° C.

T1 sequence (P33535 whole entry): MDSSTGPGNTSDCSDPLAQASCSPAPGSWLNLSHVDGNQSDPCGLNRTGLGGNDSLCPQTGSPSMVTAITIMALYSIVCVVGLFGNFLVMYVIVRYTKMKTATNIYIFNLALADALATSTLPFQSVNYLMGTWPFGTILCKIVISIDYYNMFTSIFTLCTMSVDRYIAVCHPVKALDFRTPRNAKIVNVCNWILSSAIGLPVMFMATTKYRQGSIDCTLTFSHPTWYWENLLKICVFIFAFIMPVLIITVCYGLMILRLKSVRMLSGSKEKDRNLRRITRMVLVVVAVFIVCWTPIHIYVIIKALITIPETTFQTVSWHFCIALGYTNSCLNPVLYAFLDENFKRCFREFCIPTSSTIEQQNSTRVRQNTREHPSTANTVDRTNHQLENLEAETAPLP
T3 sequence (P30680 whole entry): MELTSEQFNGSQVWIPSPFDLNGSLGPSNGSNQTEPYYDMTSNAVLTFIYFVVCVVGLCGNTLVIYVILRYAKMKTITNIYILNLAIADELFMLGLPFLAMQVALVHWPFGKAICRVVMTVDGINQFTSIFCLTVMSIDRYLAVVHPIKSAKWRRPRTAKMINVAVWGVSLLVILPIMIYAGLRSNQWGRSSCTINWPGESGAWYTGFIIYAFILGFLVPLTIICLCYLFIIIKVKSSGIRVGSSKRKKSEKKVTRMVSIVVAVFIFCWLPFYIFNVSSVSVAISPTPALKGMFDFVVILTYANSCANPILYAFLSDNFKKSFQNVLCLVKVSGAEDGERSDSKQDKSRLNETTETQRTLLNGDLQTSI
GRP receptor, sequence (P52500 whole entry): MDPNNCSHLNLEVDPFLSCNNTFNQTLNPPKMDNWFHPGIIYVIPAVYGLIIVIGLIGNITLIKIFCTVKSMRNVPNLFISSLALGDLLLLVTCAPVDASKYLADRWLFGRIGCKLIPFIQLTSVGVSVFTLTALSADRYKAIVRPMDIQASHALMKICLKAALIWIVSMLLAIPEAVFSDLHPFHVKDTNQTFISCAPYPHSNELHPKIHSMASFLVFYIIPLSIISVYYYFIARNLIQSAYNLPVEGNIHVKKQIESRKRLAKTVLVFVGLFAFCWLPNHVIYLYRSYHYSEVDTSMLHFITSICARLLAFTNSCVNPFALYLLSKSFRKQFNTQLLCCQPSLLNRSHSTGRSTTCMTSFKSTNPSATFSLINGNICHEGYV

Question: How did the Ki [1] turn out when `CSCC[C@H](NC(=O)[C@H](Cc1ccccc1)NC(=O)[C@H](Cc1c[nH]cn1)NC(=O)CNC(=O)[C@@H](NC(=O)[C@H](C)NC(=O)[C@H](Cc1c[nH]c2ccccc12)NC(=O)[C@H](CC(C)C)NC(=O)[C@H](CC(N)=O)NC(=O)CN)[C@@H](C)O)C(N)=O` [NMB, neuromedin B, reference compound] was run?
Answer: > 10000 nM

Question: And the Ki [2]?
Answer: 1.1 ± 0.2 nM

Question: And the Ki [3]?
Answer: 19 ± 1 nM

Question: And the Ki [4]?
Answer: > 10000 nM

Question: What about the Kd [5] of the same compound?
Answer: 3.1 ± 0.2 nM

Question: Which Ki [1] does the source give for “gastrin-releasing peptide (VPLPAGGGTVLTKMYPRGNHWAVGHLM; ends and bridges not checked; UniProt P07492 24-50, looked up) [GRP, mammalian bombesin-related peptide, from Peninsula Laboratories, reference compound]” here?
Answer: > 10000 nM

Question: What about the Ki [2] of the same compound?
Answer: 297 ± 15 nM

Question: What about the Ki [4] of the same compound?
Answer: > 10000 nM
